Measurements published in ChEMBL document CHEMBL1201862, “PubChem BioAssay data set” (2004).
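Where inhibition never reached the appropriate level, the endpoint shown equals the highest concentration tested. Otherwise, values were interpolated linearly from a five-concentration, 48-hour dose response in 96-well plates. At the GI50, growth is halved.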 The source made the active and inactive calls. No stated cut-off is given here; in the data, active = GI50 up to about 1.1 µM and inactive = higher.

Key:
Test in all cases: NCI-60 cell line screen, 48 h
Hs-578T = tested on: Hs-578T
EKVX = tested on: EKVX
OVCAR-4 = tested on: OVCAR-4
COLO 205 = tested on: COLO 205
786-0 = tested on: 786-0
PC-3 = tested on: PC-3
RPMI-8226 = tested on: RPMI-8226
NCI-H460 = tested on: NCI-H460
Malme-3M = tested on: Malme-3M
SR = tested on: SR
K562 = tested on: K562
SK-MEL-2 = tested on: SK-MEL-2
CAKI-1 = tested on: CAKI-1
SNB-75 = tested on: SNB-75
MDA-MB-231 = tested on: MDA-MB-231
SF-539 = tested on: SF-539
T47D = tested on: T47D
UACC-257 = tested on: UACC-257
NCI-H23 = tested on: NCI-H23
HCT-15 = tested on: HCT-15
MOLT-4 = tested on: MOLT-4
LOX IMVI = tested on: LOX IMVI
OVCAR-5 = tested on: OVCAR-5
A498 = tested on: A498
HL-60 = tested on: HL-60
CCRF-CEM = tested on: CCRF-CEM
SK-MEL-5 = tested on: SK-MEL-5
UO-31 = tested on: UO-31
OVCAR-3 = tested on: OVCAR-3
SK-OV-3 = tested on: SK-OV-3
HOP-62 = tested on: HOP-62
HOP-92 = tested on: HOP-92
SK-MEL-28 = tested on: SK-MEL-28
MCF7 = tested on: MCF7
HCC 2998 = tested on: HCC 2998
NCI-H226 = tested on: NCI-H226
TK-10 = tested on: TK-10
UACC-62 = tested on: UACC-62
U-251 = tested on: U-251
ACHN = tested on: ACHN
SF-268 = tested on: SF-268
MDA-N = tested on: MDA-N
OVCAR-8 = tested on: OVCAR-8
NCI-H522 = tested on: NCI-H522
DU-145 = tested on: DU-145
A549 = tested on: A549
RXF 393 = tested on: RXF 393
NCI/ADR-RES = tested on: NCI/ADR-RES
SN12C = tested on: SN12C
KM12 = tested on: KM12
MDA-MB-435 = tested on: MDA-MB-435
HT-29 = tested on: HT-29
SF-295 = tested on: SF-295
IGROV-1 = tested on: IGROV-1
HCT-116 = tested on: HCT-116
M14 = tested on: M14
SNB-19 = tested on: SNB-19
BT-549 = tested on: BT-549
SW-620 = tested on: SW-620

## c1ccc(C2C(=P(c3ccccc3)(c3ccccc3)c3ccccc3)P=PC2[P+](c2ccccc2)(c2ccccc2)c2ccccc2)cc1.c1ccc([B-](c2ccccc2)(c2ccccc2)c2ccccc2)cc1 (centres undefined)
Hs-578T
  GI50: 679 nM (active)
EKVX
  GI50: 4790 nM (inactive)
OVCAR-4
  GI50: 652 nM (active)
COLO 205
  GI50: 202 nM (active)
786-0
  GI50: 289 nM (active)
PC-3
  GI50: 471 nM (active)
RPMI-8226
  GI50: 278 nM (active)
NCI-H460
  GI50: 447 nM (active)
Malme-3M
  GI50: 1780 nM (inactive)
SR
  GI50: 966 nM (active)
K562
  GI50: 173 nM (active)
SK-MEL-2
  GI50: 675 nM (active)
CAKI-1
  GI50: 3660 nM (inactive)
SNB-75
  GI50: 582 nM (active)
MDA-MB-231
  GI50: 390 nM (active)
SF-539
  GI50: 656 nM (active)
T47D
  GI50: 191 nM (active)
UACC-257
  GI50: 1120 nM (inactive)
NCI-H23
  GI50: 351 nM (active)
HCT-15
  GI50: 28100 nM
MOLT-4
  GI50: 1630 nM (inactive)
LOX IMVI
  GI50: 333 nM (active)
OVCAR-5
  GI50: 2970 nM (inactive)
A498
  GI50: 818 nM (active)
HL-60
  GI50: 107 nM (active)
CCRF-CEM
  GI50: 2250 nM (inactive)
SK-MEL-5
  GI50: 191 nM (active)
UO-31
  GI50: 18800 nM (inactive)
OVCAR-3
  GI50: 579 nM (active)
SK-OV-3
  GI50: 1850 nM (inactive)
HOP-62
  GI50: 841 nM (active)
HOP-92
  GI50: 555 nM (active)
SK-MEL-28
  GI50: 1850 nM (inactive)
MCF7
  GI50: 543 nM (active)
HCC 2998
  GI50: 593 nM (active)
NCI-H226
  GI50: 1110 nM (active)
TK-10
  GI50: 762 nM (active)
UACC-62
  GI50: 2440 nM (inactive)
U-251
  GI50: 176 nM (active)
ACHN
  GI50: 701 nM (active)
SF-268
  GI50: 695 nM (active)
MDA-N
  GI50: 139 nM (active)
OVCAR-8
  GI50: 252 nM (active)
NCI-H522
  GI50: 424 nM (active)
DU-145
  GI50: 500 nM (active)
A549
  GI50: 422 nM (active)
RXF 393
  GI50: 285 nM (active)
NCI/ADR-RES
  GI50: 3480 nM (inactive)
SN12C
  GI50: 507 nM (active)
KM12
  GI50: 351 nM (active)
MDA-MB-435
  GI50: 171 nM (active)
HT-29
  GI50: 354 nM (active)
SF-295
  GI50: 492 nM (active)
IGROV-1
  GI50: 570 nM (active)
HCT-116
  GI50: 84.1 nM (active)
M14
  GI50: 286 nM (active)
SNB-19
  GI50: 313 nM (active)
BT-549
  GI50: 721 nM (active)
SW-620
  GI50: 767 nM (active)
